Assay results from patent publication US20250214967A1, “FAK DEGRADERS, PHARMACEUTICAL COMPOSITIONS, AND THERAPEUTIC APPLICATIONS” (Berrybio (Shanghai) Limited, priority 2022, published 2025).

Molecular target: FAK (Homo sapiens (Human), UniProt Q05397)
Assay: FAK Degradation Assay (Western blot, FAK/GAPDH)
Assay type: cell-based
Details: MDA-MB-231 cells, 24 h treatment, Western blot normalized to DMSO; for DC50: read-out: DC50 (half-maximal degradation concentration), FAK Degradation; for Dmax: read-out: Dmax (maximal degradation), FAK Degradation
Method: H2122 (4×10^5), MIA PaCa-2 (6×10s), or MDA-MB-231 cells (6×10^5) per well were seeded into a 6-well plate containing 2 mL of complete culture medium (RPMI-1640 for H2122 and MDA-MB-231, and DMEM/F12 for MIA PaCa-2, supplemented with 10% FBS and 1% penicillin/streptomycin). The cells were cultured overnight at 37° C. in the presence of 5% C02 before treated with a compound in a series of concentrations for 24 h. The cells were then washed with ice-cold Dulbecco's phosphate-buffered saline (DPBS). A radioimmuno-precipitation assay (RIPA) buffer was added to lyse the cells on ice for 20 min. The cells were then scrapped using cell scraper and collected in a 1.5 mL tube, which was centrifuged at 14,000 g and 4° C. for 15 min. The supernatant was collected and the total protein concentration of each sample was determined using a PIERCE™ BCA protein assay kit. The supernatant was diluted to the same protein concentration with the RIPA buffer after the BCA assay. Samples of the same protein amount were mixed with 4× a lithium dodecyl sulfate (LDS) sample buffer and boiled at 95° C. for 5 min. The denatured samples were used for electrophoresis.
For Western blot, the same volume containing ˜50 μg protein for each sample was loaded onto 4-12% Bis-Tris protein gel. The gel was run at 80 V for 0.5 h and at 120 V for 1 h. When the electrophoresis was completed, an IBLOT™ 2 gel transfer device was used to transfer FAK and GAPDH proteins at 20 V for 7 min. All the membranes were blocked in 5% nonfat dry milk in a TBST buffer at RT for 1 h and then incubated with primary antibodies (anti-FAK and anti-GAPDH) in a TBST buffer containing 5% BSA at 4° C. overnight. The membranes were washed with the TBST buffer and then incubated with secondary antibodies (goat anti-rabbit IgG H&L for FAK and goat anti-mouse IgG H&L for GAPDH) at room temperature for 1 h. Blots were visualized using an IMAGEQUANT™ LAS-4000. The chemiluminescent signals from ECL™ Western blotting reagents were captured. The band integrated intensity from each 16-bit blot image was used for quantitation. The FAK/GAPDH signal ratios of each sample were normalized using DMSO as a control and the normalized data for each compound were used to obtain its half-maximal degradation concentration (DC50) and maximal degradation (Dmax).

FAK, sequence (Q05397 whole entry): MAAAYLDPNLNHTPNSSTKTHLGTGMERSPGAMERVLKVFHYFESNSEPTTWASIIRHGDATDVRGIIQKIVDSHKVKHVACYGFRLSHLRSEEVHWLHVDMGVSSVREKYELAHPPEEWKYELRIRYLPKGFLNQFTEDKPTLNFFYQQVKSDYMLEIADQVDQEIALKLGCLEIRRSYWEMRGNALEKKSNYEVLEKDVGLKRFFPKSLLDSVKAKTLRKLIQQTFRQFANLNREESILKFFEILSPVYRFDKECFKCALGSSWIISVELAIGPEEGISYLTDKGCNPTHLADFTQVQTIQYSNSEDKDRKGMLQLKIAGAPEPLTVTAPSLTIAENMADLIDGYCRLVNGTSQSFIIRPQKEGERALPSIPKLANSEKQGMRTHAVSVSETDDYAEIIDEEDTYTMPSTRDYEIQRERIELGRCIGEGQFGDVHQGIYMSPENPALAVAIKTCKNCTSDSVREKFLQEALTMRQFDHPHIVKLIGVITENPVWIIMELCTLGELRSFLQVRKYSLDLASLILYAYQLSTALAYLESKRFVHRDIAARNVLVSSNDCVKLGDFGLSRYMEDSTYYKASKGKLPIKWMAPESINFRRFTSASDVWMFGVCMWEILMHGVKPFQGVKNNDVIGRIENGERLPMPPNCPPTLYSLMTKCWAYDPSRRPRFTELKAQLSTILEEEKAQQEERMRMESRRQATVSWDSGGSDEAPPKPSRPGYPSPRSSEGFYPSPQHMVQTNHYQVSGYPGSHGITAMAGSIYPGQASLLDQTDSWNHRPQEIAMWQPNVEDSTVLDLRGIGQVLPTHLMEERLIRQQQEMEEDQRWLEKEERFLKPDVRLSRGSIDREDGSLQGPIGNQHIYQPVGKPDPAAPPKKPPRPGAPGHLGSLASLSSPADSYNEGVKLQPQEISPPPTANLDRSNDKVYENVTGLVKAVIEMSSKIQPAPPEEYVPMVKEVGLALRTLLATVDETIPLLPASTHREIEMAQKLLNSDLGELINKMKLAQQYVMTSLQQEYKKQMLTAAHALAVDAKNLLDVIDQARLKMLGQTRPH

Structure (SMILES)	DC50 [nM]	Dmax [%]
CN(c1nccnc1CNc1nc(Nc2ccc(CNC3CCN(c4ccc(C5CCC(=O)NC5=O)cc4)CC3)cc2)ncc1C(F)(F)F)S(C)(=O)=O (centres unmarked) [Compound B1, N-(3-(((2-((4-(((1-(4-(2,6-Dioxopiperidin-3-yl)phenyl)piperidin-4-yl)amino)-methyl)phenyl)amino)-5-(trifluoromethyl)pyrimidin-4-yl)amino)methyl)pyrazin-2-yl)-N-methyl-methanesulfonamide]	1.2	92
CN(c1ccccc1CNc1cc(Nc2ccc(C(=O)NC3CCN(c4ccc5c(c4)C(=O)N(C4CCC(=O)NC4=O)C5=O)CC3)cc2)ncc1C(F)(F)F)S(C)(=O)=O (centres unmarked) [Compound A15, N-(1-(2-(2,6-dioxopiperidin-3-yl)-1,3-dioxoisoindolin-5-yl)piperidin-4-yl)-4-((4-((2-(N-methylmethylsulfonamido)benzyl)amino)-5-(trifluoromethyl)pyridin-2-yl)amino)-benzamide]	2.6	93
CN(c1cccc(CNc2cc(Nc3ccc(CNC4CCN(c5ccc6c(c5)C(=O)N(C5CCC(=O)NC5=O)C6=O)CC4)c(F)c3)ncc2C(F)(F)F)c1)S(C)(=O)=O (centres unmarked) [Compound A31, N-(3-(((2-((4-(((1-(2-(2,6-Dioxopiperidin-3-yl)-1,3-dioxoisoindolin-5-yl)-piperidin-4-yl)amino)methyl)-3-fluorophenyl)amino)-5-(trifluoromethyl)pyridin-4-yl)amino)-methyl)phenyl)-N-methylmethanesulfonamide]	6.1	98
CNC(=O)c1ccccc1Nc1cc(Nc2ccc(CNC3CCN(c4ccc5c(c4)C(=O)N(C4CCC(=O)NC4=O)C5=O)CC3)c(F)c2)ncc1C(F)(F)F (centres unmarked) [Compound A29, 2-((2-((4-(((1-(2-(2,6-dioxopiperidin-3-yl)-1,3-dioxoisoindolin-5-yl)piperidin-4-yl)amino)-methyl)-3-fluorophenyl)amino)-5-(trifluoromethyl)pyridin-4-yl)amino)-N-methyl-benzamide]	8.55	97
CS(=O)(=O)c1ccccc1Nc1cc(Nc2ccc(CNC3CCN(c4ccc5c(c4)C(=O)N(C4CCC(=O)NC4=O)C5=O)CC3)cc2)ncc1C(F)(F)F (centres unmarked) [Compound A34, 2-(2,6-Dioxopiperidin-3-yl)-5-(4-((4-((4-((2-(methylsulfonyl)phenyl)amino)-5-(trifluoromethyl)pyridin-2-yl)amino)benzyl)amino)piperidin-1-yl)isoindoline-1,3-dione]	25	83
CN(c1nccnc1CNc1nc(Nc2ccc(CNC3CCN(c4ccc5c(c4)C(=O)N(C4CCC(=O)NC4=O)C5=O)CC3)c(F)c2)ncc1C(F)(F)F)S(C)(=O)=O (centres unmarked) [Compound A30, N-(3-(((2-((4-(((1-(2-(2,6-dioxopiperidin-3-yl)-1,3-dioxoisoindolin-5-yl)piperidin-4-yl)amino)methyl)-3-fluorophenyl)amino)-5-(trifluoromethyl)pyrimidin-4-yl)amino)methyl)-pyrazin-2-yl)-N-methylmethanesulfonamide]	1.3	96
CN(c1cccc(CNc2cc(Nc3ccc(CNC4CCN(c5ccc6c(c5)C(=O)N(C5CCC(=O)NC5=O)C6=O)CC4)cc3)ncc2C(F)(F)F)c1)S(C)(=O)=O (centres unmarked) [Compound A16, N-(3-(((2-((4-(((1-(2-(2,6-Dioxopiperidin-3-yl)-1,3-dioxoisoindolin-5-yl)-piperidin-4-yl)amino)methyl)phenyl)amino)-5-(trifluoromethyl)pyridin-4-yl)amino)methyl)-phenyl)-N-methylmethanesulfonamide]	2.7	93
CN(c1ccccc1CNc1cc(Nc2ccc(CNC3CN(c4ccc5c(c4)C(=O)N(C4CCC(=O)NC4=O)C5=O)C3)cc2)ncc1C(F)(F)F)S(C)(=O)=O (centres unmarked) [Compound A19, N-(2-(((2-((4-(((1-(2-(2,6-Dioxopiperidin-3-yl)-1,3-dioxoisoindolin-5-yl)azetidin-3-yl)amino)methyl)phenyl)amino)-5-(trifluoromethyl)pyridin-4-yl)amino)methyl)phenyl)-N-methylmethanesulfonamide]	2.8	96
CN(c1nccnc1CNc1nc(Nc2ccc(OCCCCCCOc3ccc4c(c3)C(=O)N(C3CCC(=O)NC3=O)C4=O)cc2)ncc1C(F)(F)F)S(C)(=O)=O (centres unmarked) [Compound A8, N-(3-(((2-((4-((6-((2-(2,6-Dioxopiperidin-3-yl)-1,3-dioxoisoindolin-5-yl)oxy)-hexyl)oxy)phenyl)amino)-5-(trifluoromethyl)pyrimidin-4-yl)amino)methyl)pyrazin-2-yl)-N-methylmethanesulfonamide]	4.1	100
CN(c1ccccc1CNc1cc(Nc2ccc(CNC3CCN(c4ccc5c(c4)C(=O)N(C4CCC(=O)NC4=O)C5=O)CC3)cc2)ncc1C(F)(F)F)S(C)(=O)=O (centres unmarked) [Compound A14, N-(2-(((2-((4-(((1-(2-(2,6-dioxopiperidin-3-yl)-1,3-dioxoisoindolin-5-yl)piperidin-4-yl)amino)methyl)phenyl)amino)-5-(trifluoromethyl)pyridin-4-yl)amino)methyl)phenyl)-N-methylmethanesulfonamide]	10	93
CN1Cc2cccc(Oc3nc(Nc4ccc(CN[C@@H]5CCN(c6ccc7c(c6)C(=O)N(C6CCC(=O)NC6=O)C7=O)C5)c(F)c4)ncc3C(F)(F)F)c2C1=O (stereo partly drawn) [Compound A57, 2-(2,6-Dioxopiperidin-3-yl)-5-((R)-3-((2-fluoro-4-((4-((2-methyl-3-oxoisoindolin-4-yl)oxy)-5-(trifluoromethyl)pyrimidin-2-yl)amino)benzyl)amino)pyrrolidin-1-yl)isoindoline-1,3-dione]	1	86

Stronger by DC50, values ahead:

DC50 [nM]	Dmax [%]	Structure (SMILES)
0.86	94	CNC(=O)c1ccccc1Nc1cc(Nc2ccc(CN[C@H]3CCN(c4ccc5c(c4)C(=O)N(C4CCC(=O)NC4=O)C5=O)C3)cc2)ncc1C(F)(F)F (stereo partly drawn) [Compound A33, 2-((2-((4-((((3S)-1-(2-(2,6-Dioxopiperidin-3-yl)-1,3-dioxoisoindolin-5-yl)-pyrrolidin-3-yl)amino)methyl)phenyl)amino)-5-(trifluoromethyl)pyridin-4-yl)amino)-N-methylbenzamide]
0.83	94	CN(c1nccnc1CNc1nc(Nc2cccc(C(=O)N3CCC(N4CCN(c5ccc6c(c5)C(=O)N(C5CCC(=O)NC5=O)C6=O)CC4)CC3)c2)ncc1C(F)(F)F)S(C)(=O)=O (centres unmarked) [Compound A11, N-(3-(((2-((3-(4-(4-(2-(2,6-Dioxopiperidin-3-yl)-1,3-dioxoisoindolin-5-yl)-piperazin-1-yl)piperidine-1-carbonyl)phenyl)amino)-5-(trifluoromethyl)pyrimidin-4-yl)amino)-methyl)pyrazin-2-yl)-N-methylmethanesulfonamide]
0.78	95	COc1cc(CNC2CCN(c3ccc4c(c3)C(=O)N(C3CCC(=O)NC3=O)C4=O)CC2)c(F)cc1Nc1ncc(C(F)(F)F)c(Oc2cccc3c2C(=O)N(C)C3)n1 (centres unmarked) [Compound A52, 2-(2,6-Dioxopiperidin-3-yl)-5-(4-((2-fluoro-5-methoxy-4-((4-((2-methyl-3-oxoisoindolin-4-yl)oxy)-5-(trifluoromethyl)pyrimidin-2-yl)amino)benzyl)amino)piperidin-1-yl)-isoindoline-1,3-dione]
0.79	91	CNC(=O)c1ccccc1Nc1cc(Nc2ccc(CN[C@@H]3CCN(c4ccc5c(c4)C(=O)N(C4CCC(=O)NC4=O)C5=O)C3)cc2)ncc1C(F)(F)F (stereo partly drawn) [Compound A32, 2-((2-((4-((((3R)-1-(2-(2,6-Dioxopiperidin-3-yl)-1,3-dioxoisoindolin-5-yl)-pyrrolidin-3-yl)amino)methyl)phenyl)amino)-5-(trifluoromethyl)pyridin-4-yl)amino)-N-methylbenzamide]
0.2	98	CNC(=O)c1ccccc1Nc1nc(Nc2ccc(CNC3CCN(c4ccc(C5CCC(=O)NC5=O)cc4)CC3)cc2)ncc1C(F)(F)F (centres unmarked) [Compound B2, 2-((2-((4-(((1-(4-(2,6-Dioxopiperidin-3-yl)phenyl)piperidin-4-yl)amino)methyl)-phenyl)amino)-5-(trifluoromethyl)pyrimidin-4-yl)amino)-N-methylbenzamide]
